Data taken from US20230129438A1, “IMMUNOMODULATING IMINE-OXAZOLINE AZALIDES” (Zoetis Services LLC, priority 2020, published 2023).
Converted amounts (≈) assume the structure as drawn. “Also recorded” adds a separate entry of the source. Where two headings read alike, the source gives them in different places.

What was measured:
IL-1β = assay: Bovine whole blood assay, IL-1β; type: cell-based; conditions: drug concentration giving overstimulation of IL-1β over LPS (cellular toxicity signal)
Method: (protected from light) for 30 minutes.

P. multocida 46572 = assay: In vivo mouse lung infection challenge model (murine efficacy model); conditions: P. multocida infection in mice
P. multocida [1] = assay: Murine P. multocida intranasal challenge study with lung tissue RNA sequence analysis; type: in vivo, mouse; conditions: 32 mg/kg subcutaneous 18 hours after challenge (T03); placebo 0%
Method: In one murine P. multocida intranasal challenge study, mice were administered tulathromycin (16 mg/kg; T02), M9 (32 mg/kg; T03), or ceftiofur (9 mg/kg; T04) by subcutaneous injection 18 hours after bacterial challenge (5×10^3 CFU/mouse) for lung tissue RNA sequence analysis. Survival at Day 7 was about 80%, 50%, and 90% for T02, T03, and T04, respectively, compared to placebo at 0%. Differential gene expression from total lung tissue RNA sequence analysis indicated at least 226 unique genes were up or down regulated (with significance) for T03. Output from ingenuity pathway analysis of these unique genes predicted major upstream regulators of the involved pathways. Data was analyzed based on the number of genes being modulated in the same direction that were associated with a given upstream regulator. An activation z-score of 2 or greater is considered significant and the direction change is indicated by + (activated) or − (inhibited). The top 5 pathways included: IL-9 signaling, glucocorticoid receptor signaling, prolactin signaling, JAK STAT signaling, and IL-17 signaling. The top 6 upstream regulators (activation z-score) included: lipopolysaccharide (−6.725), TNF (−4.669), IFNγ (−5.759), IL-1β (−5.947), STAT1 (−2.787), and poly rI:rC-RNA (−5.289). Even though this study was run in the murine model, the top upstream regulators identified as being modulated by M9 include an almost ubiquitous overlap with the pathways identified in the natural disease study as being key mediators in BRD, and therefore is modulating highly relevant pathways in BRD pathobiology.

[2] = test system: bovine respiratory disease (BRD); assay: Natural bovine respiratory disease study; type: in vivo, beef calves; conditions: for Percent failure (treatment failure): 14-day observation, saline 43%
Method: The primary clinical endpoint for efficacy was treatment failure/success over a 14-day observation period. Clinically normal beef calves (150-200 kg) at moderate risk for BRD were dosed on arrival to the feedlot. Animals (N=114/group) received saline (T01), 5 mg/kg M9 (T02) or 10 mg/kg M9 (T03); or Zactran (T04). […] Bacterial isolates were collected at necropsy and MICs were evaluated (Table 4).

[3] = test system: M. haemolytica (strain: OSU-012103-BHI); assay: Bovine M. haemolytica intratracheal lung challenge model; type: in vivo
[4] = Separate study of M9 versus saline control (lung lesions, mortality); type: in vivo; conditions: 10 mg/kg
LCN2 = target: T1, LCN2 (Bos taurus, UniProt A0AAA9TIZ6); assay: Surface plasmon resonance (SPR) drug/target binding, LCN2; parameters: species or system bovine; conditions: read-out: Interaction KD
T1 sequence (A0AAA9TIZ6 24-200): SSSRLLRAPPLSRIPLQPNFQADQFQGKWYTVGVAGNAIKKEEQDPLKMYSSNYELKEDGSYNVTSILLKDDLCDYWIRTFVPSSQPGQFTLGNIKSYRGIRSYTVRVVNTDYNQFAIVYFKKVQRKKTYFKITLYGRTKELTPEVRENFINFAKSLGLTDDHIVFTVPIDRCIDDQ
Method: (§1) To further characterize the direct activity of the compounds of the invention, experiments to identify the drug's direct binding host partners(s) were performed with the aim of identifying the potential biological targets. Bovine primary cells (peripheral blood mononuclear cells [PBMCs] and polymorphonuclear cells [PMN/neutrophils]) and tissue (trachea, lung) protein homogenates were mixed with M9 and the macrolide, gamithromicin as a comparator. Tissue interactions were allowed to form using a heterogeneous assembly method (nematic protein organization technique, NPOT; Inoviem Scientific); and traditional western blots to identify native-structure proteins bound to the compound. Mass spectrometry analysis identified eight proteins involved in the interaction with M9 as compared to gamithromycin. The antibacterial macrolide gamithromycin was used as a comparator to differentiate specific binding to M9. These proteins were considered to be either direct binding partners of the drug or closely involved in the drug:target interaction (Table 6).
(§2) In order to add further clarity to binding partner identification, surface plasma resonance (SPR) technology was used. […]
(§3) KD is the equilibrium dissociation constant that was used to present the drug/target affinity. The identified targets associated with drug were measured by surface plasmon resonance (SPR) to define the KD.

SLAMF9 = SLAMF9 (Bos taurus, UniProt E1BNF9); assay: Surface plasmon resonance (SPR) drug/target binding, SLAMF9; parameters: species or system bovine; conditions: read-out: Interaction KD
Sequence of SLAMF9 (E1BNF9 1-289): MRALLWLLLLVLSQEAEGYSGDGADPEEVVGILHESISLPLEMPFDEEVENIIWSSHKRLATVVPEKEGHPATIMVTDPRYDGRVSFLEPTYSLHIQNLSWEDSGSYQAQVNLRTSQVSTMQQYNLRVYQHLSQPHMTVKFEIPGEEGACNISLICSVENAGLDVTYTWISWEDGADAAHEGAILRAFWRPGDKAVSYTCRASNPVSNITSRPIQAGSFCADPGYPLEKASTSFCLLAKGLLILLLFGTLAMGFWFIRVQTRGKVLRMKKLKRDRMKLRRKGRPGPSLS
Method: as §1, §2, §3

NLRX1 = NLRX1 (Bos taurus, UniProt A7MB19); assay: Drug binding partner identification (NPOT/SPR), NLRX1; parameters: species or system bovine; conditions: tissue PBMCs
Sequence of NLRX1 (A7MB19 1-973): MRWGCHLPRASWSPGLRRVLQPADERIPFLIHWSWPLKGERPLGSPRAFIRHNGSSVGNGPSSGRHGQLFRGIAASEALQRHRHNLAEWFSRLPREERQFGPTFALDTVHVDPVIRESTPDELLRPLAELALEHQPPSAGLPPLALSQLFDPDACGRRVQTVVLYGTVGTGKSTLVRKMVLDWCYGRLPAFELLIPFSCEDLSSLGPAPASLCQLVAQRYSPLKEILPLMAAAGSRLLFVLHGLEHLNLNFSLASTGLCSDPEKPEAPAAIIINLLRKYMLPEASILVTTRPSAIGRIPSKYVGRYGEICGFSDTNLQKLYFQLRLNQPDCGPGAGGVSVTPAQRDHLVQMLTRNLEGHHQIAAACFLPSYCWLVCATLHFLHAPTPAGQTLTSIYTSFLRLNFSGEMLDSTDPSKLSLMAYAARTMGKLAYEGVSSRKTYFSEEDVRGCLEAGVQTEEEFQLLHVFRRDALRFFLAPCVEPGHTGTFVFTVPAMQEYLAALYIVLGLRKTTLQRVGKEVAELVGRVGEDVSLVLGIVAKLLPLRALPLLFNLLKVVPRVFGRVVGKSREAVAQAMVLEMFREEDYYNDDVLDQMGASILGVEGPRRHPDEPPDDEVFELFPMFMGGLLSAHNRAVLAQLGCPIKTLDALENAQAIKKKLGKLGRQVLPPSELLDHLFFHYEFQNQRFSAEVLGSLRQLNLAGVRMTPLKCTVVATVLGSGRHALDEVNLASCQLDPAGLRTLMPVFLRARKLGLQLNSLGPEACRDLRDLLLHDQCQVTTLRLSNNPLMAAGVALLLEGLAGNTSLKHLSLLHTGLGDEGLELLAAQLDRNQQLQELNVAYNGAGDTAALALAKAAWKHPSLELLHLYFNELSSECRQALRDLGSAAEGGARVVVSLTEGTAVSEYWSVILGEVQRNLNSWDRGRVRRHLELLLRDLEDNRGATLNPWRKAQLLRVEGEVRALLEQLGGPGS
Method: as §1, §2, §3

LPO = LPO (Bos taurus, UniProt P80025); assay: Drug binding partner identification (NPOT/SPR), LPO; parameters: species or system bovine; conditions: tissue Trachea, PBMCs, PMNs
Method: as §1, §2, §3

TLR4 = target: T2, TLR4 (Bos taurus, UniProt Q9GL65); assay: Drug binding partner identification (NPOT/SPR), TLR4; parameters: species or system bovine; conditions: tissue PBMCs, Trachea
T2 sequence (Q9GL65 24-841): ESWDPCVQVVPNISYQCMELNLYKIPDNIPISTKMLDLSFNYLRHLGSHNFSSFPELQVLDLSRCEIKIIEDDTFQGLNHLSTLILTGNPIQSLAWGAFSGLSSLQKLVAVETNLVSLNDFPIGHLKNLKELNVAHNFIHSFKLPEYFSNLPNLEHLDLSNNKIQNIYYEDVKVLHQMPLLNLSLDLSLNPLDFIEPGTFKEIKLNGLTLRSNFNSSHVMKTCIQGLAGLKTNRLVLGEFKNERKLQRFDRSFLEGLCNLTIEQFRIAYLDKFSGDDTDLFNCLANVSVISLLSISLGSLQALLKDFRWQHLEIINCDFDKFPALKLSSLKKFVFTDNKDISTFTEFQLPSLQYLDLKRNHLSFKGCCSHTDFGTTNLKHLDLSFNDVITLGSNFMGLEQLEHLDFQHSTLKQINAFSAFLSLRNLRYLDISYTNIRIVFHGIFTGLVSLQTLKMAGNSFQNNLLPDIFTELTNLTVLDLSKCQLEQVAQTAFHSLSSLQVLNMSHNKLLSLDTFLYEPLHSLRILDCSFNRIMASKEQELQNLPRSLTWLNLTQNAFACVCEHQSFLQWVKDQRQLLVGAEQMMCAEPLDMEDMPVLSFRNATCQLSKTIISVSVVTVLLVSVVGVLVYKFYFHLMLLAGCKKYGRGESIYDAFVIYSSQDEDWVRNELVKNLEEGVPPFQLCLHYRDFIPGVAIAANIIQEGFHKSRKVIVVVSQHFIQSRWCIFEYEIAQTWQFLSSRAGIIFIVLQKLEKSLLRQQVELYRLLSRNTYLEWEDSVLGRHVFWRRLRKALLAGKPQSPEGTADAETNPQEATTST
Method: as §1, §2, §3

[5] = Separate PK study, plasma concentration; conditions: following a 10 mg/kg dose
M. haemolytica = assay: In-vitro MIC model, M. haemolytica; type: cell-based
P. multocida [6] = assay: In-vitro MIC model, P. multocida; type: cell-based
H. somni = assay: In-vitro MIC model, H. somni; type: cell-based; conditions: lung isolates at necropsy, natural BRD study, H. somni (25)
[7] = lung isolates at necropsy, natural BRD study, M. haemolytica (116)
[8] = lung isolates at necropsy, natural BRD study, P. multocida (33)

**Q.** Which results are given for `CCCNC[C@]1(O)[C@H](C)O[C@@H](O[C@H]2[C@H](C)[C@@H](O[C@@H]3O[C@H](C)C[C@H](NC)[C@H]3O)[C@](C)(O)C[C@@H](C)CN[C@H](C)[C@@H](O)[C@](C)(O)[C@@H](CC)OC(=O)[C@@H]2C)C[C@@]1(C)OC` [Example M9, (2R,3S,4R,5R,8R,10R,11R,12S,13S,14R)-2-ethyl-3,4,10-trihydroxy-13-(((2R,4R,5S,6S)-5-hydroxy-4-methoxy-4,6-dimethyl-5-((propylamino)methyl)-tetrahydro-2H-pyran-2-yl)oxy)-11-(((2S,3R,4S,6R)-3-hydroxy-6-methyl-4-(methylamino)tetrahydro-2H-pyran-2-yl)oxy)-3,5,8,10,12,14-hexamethyl-1-oxa-6-azacyclopentadecan-15-one]?
**A.** IL-Iβ OS of LPS (IL-1β): > 500 µM; clinical efficacy, in words (P. multocida 46572): clinically efficacious; Survival at Day 7 (P. multocida [1]): ~50%; Percent failure (treatment failure) ([2]; 10 mg/kg (T03), dosed on arrival): 8.8%; efficacy versus untreated control groups, in words ([2]; reduction of lung lesions and treatment failure): statistical superiority; Mortality ([3]; T02: 10 mg/kg subcutaneous Day −1, M. haemolytica challenge Day 0, saline 4/6): 1/6; IL-6 levels, in words ([3]; bovine M. haemolytica challenge, blood biomarker): significantly reduced; CD163 expression, in words ([3]; cattle, monocytes/macrophages in whole blood, flow cytometry): suppressed; also recorded: mitigates the pathologic increase; lung lesions ([4]; saline control 31%, p=0.023): 20%; Mortality ([4]; saline control 38.9%, p=0.025): 13%; Kd (LCN2; pH 5.5, SPR): 0.435 mM; Kd (LCN2; pH 6.5, SPR): 4.21 mM; Kd (SLAMF9; pH 5.5, SPR): 6.33 mM; Kd (SLAMF9; pH 6.5, SPR): 2.15 mM; Interaction (NLRX1): Indirect; Interaction (LPO): Indirect; Interaction (TLR4): Indirect; maximum plasma concentration [5]: 5 µg/mL

**Q.** Which results are given for `CCCN1C[C@H](C)[C@@H](O)[C@](C)(O)[C@@H](CC)OC(=O)[C@H](C)[C@@H](O[C@H]2C[C@@](C)(OC)[C@@H](O)[C@H](C)O2)[C@H](C)[C@@H](O[C@@H]2O[C@H](C)C[C@H](N(C)C)[C@H]2O)[C@](C)(O)C[C@H]1C` [gamithromycin, reference compound]?
**A.** MIC50 (M. haemolytica; [7]): 1 µg/mL (≈ 1.29 µM); MIC90 (M. haemolytica; [7]): >64 µg/mL; MIC values, range over strains (M. haemolytica; the same M. haemolytica screening strains): 0.5 to 1 µg/mL; MIC50 (P. multocida [6]; [8]): 1 µg/mL (≈ 1.29 µM); MIC90 (P. multocida [6]; [8]): >64 µg/mL; MIC values, range over strains (P. multocida [6]; the same P. multocida screening strains): 1 to 2 µg/mL; MIC50 (H. somni): 0.25 µg/mL (≈ 0.322 µM); MIC90 (H. somni): 2 µg/mL (≈ 2.57 µM); Percent failure (treatment failure) ([2]; T04, dose not given): 29.8%
